# Source: patent US10544152B2, “5-HT2CR agonist analogs” (The Board of Regents of The University of Texas System, priority 2017, dated 2020)
# Read-outs that look alike come from different tables or passages of the source.
# Legend:
# 5-HT2CR [1] = biological target: T1, 5-HT2CR (Homo sapiens (Human), UniProt P28335); test: Intracellular calcium (Cai++) release assay, FLIPR Calcium 4, U2OS cells stably expressing 5-HT2CR; assay type: cell-based; conditions: for Emax: % Cai++ release obtained with 1 μM of WAY163909 (1), U2OS cells expressing human 5-HT2CR; for EC50: Cai++ release, U2OS cell line stably expressing human 5-HT2CR, mean ± SEM, at least three independent experiments
# T1 sequence (P28335 33-458): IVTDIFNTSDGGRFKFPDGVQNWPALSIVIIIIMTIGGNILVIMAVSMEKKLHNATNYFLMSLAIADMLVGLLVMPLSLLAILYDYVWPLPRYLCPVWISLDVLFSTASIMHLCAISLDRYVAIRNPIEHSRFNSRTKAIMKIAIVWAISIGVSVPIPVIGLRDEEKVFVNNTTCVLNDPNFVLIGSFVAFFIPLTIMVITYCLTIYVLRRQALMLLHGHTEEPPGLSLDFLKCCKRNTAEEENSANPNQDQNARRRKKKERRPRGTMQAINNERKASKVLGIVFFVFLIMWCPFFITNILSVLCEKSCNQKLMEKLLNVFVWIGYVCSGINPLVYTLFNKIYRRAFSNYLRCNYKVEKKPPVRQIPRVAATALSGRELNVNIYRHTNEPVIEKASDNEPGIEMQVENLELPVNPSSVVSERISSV
# Experimental: The PathHunter® U2OS HTR2C β-Arrestin cell line (5-HT2cR-U2OS; DiscoveRx) stably express the nonedited human 5-HT2CR isoform (h5-HT2CR). The 5-HT2CR-U2OS cells were grown in Assay Complete™ U2OS Medium 31 (DiscoveRx) at 37° C., 5% CO2 and 85% relative humidity according to manufacturer's recommendations utilizing AssayComplete™ Cell Detachment Reagent (DiscoveRx). Cells were passaged at 70-80% confluence and all experiments were conducted using cells in log phase growth.
# The ability of the molecules to act as agonists to induce 5-HT2CR-mediated intracellular calcium (Cai^++) release was conducted in an U2OS cell line stably expressing the human 5-HT2CR.
# Intracellular calcium (Cai^++) release was monitored using the FLIPR Calcium 4 Assay Kit (Molecular Devices) according to previously published protocols with minor modifications. See, e.g., Shashack, M. J., et al., ACS Chem Neurosci. 2 (11), 640-644 (2011); Seitz, P. K.; Bremer, N. M., et al., BMC Neurosci. 13, 25 (2012).
# Cells were plated at 5,000-7,000 cells/well in Assay Complete™ Cell Plating Reagent 16 (DiscoveRx) in black-sided, clear bottomed 96-well tissue culture plates and allowed to adhere overnight. Medium was removed and replaced with 40 μl Hank's balanced salt solution without calcium, magnesium and phenol red (HBSS; Corning) plus 40 μl Calcium 4 dye solution in Buffer B supplemented with 2.5 mM probenecid (Sigma-Aldrich) to inhibit extracellular dye transport. Plates were incubated for 60 min at 37° C. followed by 30 min at room temperature in the dark.
# Fluorescence (λex=485 nm, λem=525 nm) was measured using a FlexStation3 (Molecular Devices). Baseline was established for 17 secs before addition of 20 μl vehicle (HBSS without calcium or magnesium) or 5× concentrated compound. […] Maximum peak height was determined using FlexStation software (SoftMax Pro 5.4). After the final readings, cells were fixed in 2% paraformaldehyde overnight.
# Peak responses from each well were normalized to total cell mass as determined with crystal violet staining. See e.g., Ding, C. et al., ACS Chem. Neurosci 3 (7), 538-545 (2012). […] Potency of the compounds was determined using the EC50 (concentration of compound required to achieve half-maximal response). The EC50 values were determined using 4-parameter nonlinear regression analysis and calculated from at least three independent experiments, each conducted in triplicate, and are presented as mean±SEM. Ratkowsky, D. A., et al., Biometrics 42, 575-582 (1986).
# 5-HT2BR = 5-HT2BR (Homo sapiens (Human), UniProt P41595); test: CEREP radioligand displacement of [125I]-(±)-DOI at 5-HT2BR; conditions: duplicate, read-out: mean percent inhibition of control specific binding, 5-HT2BR
# Chain of 5-HT2BR (P41595 whole entry): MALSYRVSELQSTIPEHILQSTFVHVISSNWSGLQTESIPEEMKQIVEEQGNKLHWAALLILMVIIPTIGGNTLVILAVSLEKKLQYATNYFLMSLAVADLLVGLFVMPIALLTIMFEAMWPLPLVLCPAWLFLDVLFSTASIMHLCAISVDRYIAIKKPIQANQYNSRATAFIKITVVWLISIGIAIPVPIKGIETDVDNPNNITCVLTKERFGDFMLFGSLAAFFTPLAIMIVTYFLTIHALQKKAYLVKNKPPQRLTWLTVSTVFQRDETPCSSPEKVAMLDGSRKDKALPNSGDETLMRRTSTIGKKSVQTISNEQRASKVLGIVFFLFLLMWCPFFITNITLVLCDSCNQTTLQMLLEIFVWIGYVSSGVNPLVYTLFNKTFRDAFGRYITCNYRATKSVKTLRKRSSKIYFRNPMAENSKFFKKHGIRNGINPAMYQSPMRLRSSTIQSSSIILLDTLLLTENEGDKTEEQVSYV
# Experimental: (§1) Compounds were submitted to CEREP to determine receptor selectivity at the 5-HT2 Compounds were tested at a single concentration of 10 μM in duplicate to determine their ability to displace [^125I]-(±)-DOI. The data are presented as mean percent inhibition of control specific binding for compound tested at each receptor subtype (Table 2). Significant inhibition is considered >50%; 25-50% inhibition is indicative of weak to moderate effects.
# 5-HT2CR [2] = biological target: T1, 5-HT2CR; test: CEREP radioligand displacement of [125I]-(±)-DOI at 5-HT2CR; conditions: duplicate, read-out: mean percent inhibition of control specific binding, 5-HT2CR
# Experimental: as §1
# 5-HT2AR = 5-HT2AR (Homo sapiens (Human), UniProt P28223); test: CEREP radioligand displacement of [125I]-(±)-DOI at 5-HT2AR; conditions: read-out: mean percent inhibition of control specific binding, 5-HT2AR
# Chain of 5-HT2AR (P28223 whole entry): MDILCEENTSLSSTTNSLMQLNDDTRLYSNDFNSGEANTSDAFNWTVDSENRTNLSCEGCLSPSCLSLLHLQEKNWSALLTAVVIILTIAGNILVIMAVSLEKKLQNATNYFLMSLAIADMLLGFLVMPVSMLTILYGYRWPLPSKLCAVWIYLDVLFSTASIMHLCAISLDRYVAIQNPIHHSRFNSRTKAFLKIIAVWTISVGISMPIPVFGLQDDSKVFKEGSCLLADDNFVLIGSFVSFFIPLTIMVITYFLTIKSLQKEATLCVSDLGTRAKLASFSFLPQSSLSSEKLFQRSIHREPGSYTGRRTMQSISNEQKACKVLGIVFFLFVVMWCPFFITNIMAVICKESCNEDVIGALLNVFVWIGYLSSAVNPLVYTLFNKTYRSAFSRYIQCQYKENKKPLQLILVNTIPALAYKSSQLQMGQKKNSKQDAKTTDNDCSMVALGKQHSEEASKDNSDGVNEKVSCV
# Experimental: as §1
Compound,Emax (5-HT2CR [1]) [%],EC50 (5-HT2CR [1]) [nM],inhibition at 10 µM (5-HT2BR) [%],inhibition at 10 µM (5-HT2CR [2]) [%],inhibition at 10 µM (5-HT2AR) [%],"inhibition at 10 µM (5-HT2AR; 10 μM, duplicate, displacement of [125I]-(±)-DOI) [%]"
"c1cc2c3c(c1)[C@H]1CCC[C@H]1N3CCNC2 (racemic) [Compound 1, (7bR,10aR)-1,2,3,4,8,9,10,10a-octahydro-7bH-cyclopenta-[b][1,4]diazepino[6,7,1hi]indole, reference compound]",100,,,,,
"COc1ccc2c3c1[C@H]1CCC[C@H]1N3CCNC2 (racemic) [Compound 36, 7-methoxy-2,3,4,7b,8,9,10,10a-octahydro-1H-cyclopenta[b][1,4]diazepino[6,7,1-hi]indole]",105 ± 6.1,1.2 ± 0.3,98.6,100,86.5,
"C#CCOCCOCCOc1ccc2c3c1C1CCCC1N3CCNC2 (racemic) [Compound 45, 7-(2-(2-(prop-2-ynyloxy)ethoxy)ethoxy)-2,3,4,7b,8,9,10,10a-octahydro-1H-cyclopenta[b][1,4]diazepino[6,7,1-hi]indole]",99.3 ± 2.2,218 ± 53.1,67.7,99.6,,67.1
"COc1ccc2c3c1[C@@H]1CCC[C@@H]1N3CCNC2 (stereo in doubt) [Compound 37, 7-methoxy-2,3,4,7b,8,9,10,10a-octahydro-1H-cyclopenta[b][1,4]diazepino[6,7,1-hi]indole]",97.6 ± 4.7,72.4 ± 14.5,4.8,91.5,22.8,
"OCCc1c[nH]c2ccc(O)cc12 [Compound 27, reference compound]",100,0.33 ± 0.1,,,,
"C#CCOCCOCCOCCOc1ccc2c3c1C1CCCC1N3CCNC2 (stereo not shown) [Compound 46, 7-(2-(2-(2-(prop-2-ynyloxy)ethoxy)ethoxy)ethoxy)-2,3,4,7b,8,9,10,10a-octahydro-1H-cyclopenta[b][1,4]diazepino[6,7,1-hi]indole]",95.2 ± 2.3,575 ± 112,,,,

# Second part, led by results:
Emax (5-HT2CR [1]) [%],EC50 (5-HT2CR [1]) [nM],Compound,inhibition at 10 µM (5-HT2BR) [%],inhibition at 10 µM (5-HT2CR [2]) [%],inhibition at 10 µM (5-HT2AR) [%],"inhibition at 10 µM (5-HT2AR; 10 μM, duplicate, displacement of [125I]-(±)-DOI) [%]"
95.9 ± 1.5,1480 ± 238,COc1cc2c3c(c1)[C@H]1CCC[C@H]1N3CCNC2 (racemic) [Compound 17],,,,
103 ± 4.6,2.4 ± 0.4,"COc1ccc2c3c1C1CCCC1N3CCNC2 (racemic) [Compound 18, 7-methoxy-2,3,4,7b,8,9,10,10a-octahydro-1H-cyclopenta[b][1,4]diazepino[6,7,1-hi]indole]",,,,
95.9 ± 2.6,119 ± 11.5,Oc1ccc2c3c1[C@H]1CCC[C@H]1N3CCNC2 (racemic) [Compound 35],,,,
97.2 ± 2.3,51.9 ± 9.6,"C#CCOCCOc1ccc2c3c1C1CCCC1N3CCNC2 (racemic) [Compound 44, 7-(2-(Prop-2-ynyloxy)ethoxy)-2,3,4,7b,8,9,10,10a-octahydro-1H-cyclopenta[b][1,4]diazepino[6,7,1-hi]indole]",,,,
